Measured values: PMC7756582, “Prodrugs of γ‐Alkyl‐Modified Nucleoside Triphosphates: Improved Inhibition of HIV Reverse Transcriptase” (Angewandte Chemie (International Ed. in English), 2020)

Assays:
[1] = Chemical hydrolysis in aqueous phosphate buffer (PBS, pH 7.3); format: physicochemical; conditions: phosphate buffered saline (PBS); aqueous 25 mM phosphate buffer, pH 7.3, 37 °C; removal of AB group; n.h. = no hydrolysis observed through cleavage of AB-mask; read-out: PBS pH 7.3 t 1/2 (converted)
Procedure: γ‐(AB,alkyl)‐NTP prodrugs 6 and γ‐alkyl‐NTPs 7 were incubated in aqueous phosphate buffer (PBS, 25 mM, pH 7.3), or were exposed to pig liver esterase (PLE) in phosphate buffer (PBS) and to human CD4^+ T‐lymphocyte cell extracts to study their stability and the product distribution. The hydrolysis mixtures were analyzed by means of analytical rp‐18‐HPLC. The calculated half‐lives of prodrugs 6 (Table 1, t 1/2) reflect the removal of the bioreversible AB group to yield γ‐alkyl‐NTPs 7. Possible hydrolysis pathways and products are summarized in Scheme 4.
As hydrolysis products, a predominant formation of γ‐alkyl‐d4TTPs 7 and a very small amount of d4TDP […] was detected (approximately 3 %). After consumption of the starting material, no further increase of d4TDP concentration was observed. This supports the hypothesis that only the double‐γ‐esterified d4TTP prodrugs 6 were prone to a bond breakage between the γ‐ and β‐phosphate. […] In contrast to previous studies with TriPPPro‐NTPs 5 containing a second cleavable mask (first generation NTP prodrugs),[ ^23 , ^24 , ^25 ] no d4TTP was detected in these studies using 6 or 7. A side reaction occurred during the studies using compounds 7 that led to the formation of thymine by the cleavage of the glycosidic bond as reported before.[ ^19 , ^22 ]
(§1) ProLab 300 from Schott Co.. Thermomixer: Eppendorf Thermomixer 5436 and CellMedia Thermoschüttler basic were used. […]
Chemical hydrolysis of prodrugs of γ-(AB,alkyl) d4TTP 6 as well as the γ-alkyl-NTPs 7,15:
Stock solutions (50mM in DMSO-d6) of compounds 6,7 were prepared. After dilution of 11 µL stock solution with 100 µL milliQ water and 189 µL DMSO-d6 to 1.9mM hydrolysis solutions the reaction was started by addition of 300 µL phosphate buffer saline (PBS, 50mM, pH 7.3). The solution was incubated at 37 C in a thermomixer. An initial aliquot (25 µL) was taken directly and analyzed by analytical HPLC at 265-266 nm. Further aliquots were taken for monitoring the kinetic hydrolysis. The exponential decay curves (pseudo-first order) based on absolute integral values were calculated with commercially available software (OriginPro 9.0G) and yielded the half-lives t1/2 of the prodrugs via one determination. […]
The calculation of t1/2 was performed analogously to that for the chemical hydrolysis studies.
(§2) Preparation of cell extracts: Human CD4+ T-lymphocyte CEM cells were grown in RPMI-1640-based cell culture medium to a final density of ~3·10^6 cells/ml. Then, cells were centrifuged for 10 min at 1,250 rpm at 4 °C, washed twice with cold PBS, and the pellet was re-suspended at 10^8 cells/ml and sonicated (Hielscher Ultrasound Techn., 100% amplitude, 3·times for 10 sec) to destroy cell integrity. The resulting cell suspension was then centrifuged at 10,000 rpm to remove cell debris, and the supernatant divided in aliquots before being frozen at -80 C and used.
(1 picture or pasted object on this page, not shown here)

[2] = Enzyme-catalyzed hydrolysis in human CD4+ T-lymphocyte CEM cell extracts; format: in vitro ADME; conditions: for half-life at 0.86 mM: CEM/0 cell extracts (CD4+ T-lymphocytes), human CD4+ T-lymphocyte CEM cell extracts, 37 °C, read-out: CEM/0 cell extracts t 1/2 (converted)
Procedure: The stability of prodrugs 6 and the γ‐alkyl‐NTPs 7 was further investigated in human CD4 ^+ T‐lymphocyte CEM cell extracts. […] Thus, an enzymatic cleavage reaction took place. Half‐lives as low as 0.4 h (6 az) to 5.2 h (6 dz) were determined. […] This is in accordance to our previous results for the DiPPro‐[ ^17 , ^18 ] or the TriPPPro‐compounds 5.[ ^22 , ^23 ] In all cases we observed the predominant formation of γ‐alkyl‐d4TTPs 7 and d4TDP 2 d in very low concentration (Figure 2 B) but no NTP formation was detected, in contrast to the studies using the previously described TriPPPro compounds 5.[ ^23 , ^24 ] However, the difference to the compounds bearing long lipophilic acyl groups was not very pronounced (2‐ to 3‐fold). In the case of γ‐(AB‐C4,alkyl‐C18)‐d4TTP 6 cz, γ‐C18‐d4TTP 7 z was detected as the main product. After 8 h incubation, the ratio of γ‐C18‐d4TTP 7 z and d4TDP 2 d was 5:1. This was in sharp contrast to the studies performed with TriPPPro compounds 5.[ ^23 , ^24 ] There, it was almost impossible to detect significant concentrations of d4TTP due to its fast dephosphorylation to form first d4TDP and finally d4TMP 2 m. […] The formation of thymine or d4TTP 2 t from γ‐C18‐d4TTP 7 z was not detected (Supporting Information, Figure SI2).
as §1
Enzyme-catalyzed hydrolysis of γ-(AB,alkyl)-d4TTPs 6, γ-alkyl-d4TTPs 7,15 and TriPPPros 5 in CEM cell extracts:
18 µL of the appropriate 50 mM DMSO-d6 stock solution was diluted to 6.0 mM hydrolysis solution by addition of 132.0 µL DMSO-d6.
7-10 different samples including 10 µL water and 10 µL hydrolysis solution were prepared in 2 mL Eppendorf® vials. The reaction was started by addition of 50 µL human CEM cell extract and the mixture was incubated at 37 °C for different time periods. The reactions were stopped by addition of 150 μL MeOH. The solution was kept on ice for 5 min followed by centrifugation for 5 min (13000 rpm).
The supernatants were filtered (Chromafil® RC-20/15 MS, 0.2 μm) and stored in liquid nitrogen. When testing, the samples were defrosted and injection volume with 80 μL was used for HPLC analysis. The calculation of t1/2 was performed analogously to that for the chemical hydrolysis studies.
as §2

[3] = test system: HIV-1(IIIB); assay: Anti-HIV activity assay, HIV-1-infected wild-type CEM/0 cell cultures; format: cell-based; conditions: Human immunodeficiency virus 1, IIIB, CCRF-CEM; wild-type CEM/0 cells, HIV-1; mean±SD, n=2-3; read-out: EC50 CEM/0 HIV-1
Procedure: (§3) γ‐(AB,alkyl)‐d4TTP prodrugs 6 and the γ‐alkyl‐d4TTPs 7 were evaluated for their ability to inhibit the replication of HIV in HIV‐1‐ or HIV‐2‐infected wild‐type CEM/0 as well as mutant thymidine‐kinase‐deficient CEM cell cultures (CEM/TK^−). For comparison, two TriPPPro derivatives 5 were also included in this assay.
(§4) Anti-HIV activity assay: Inhibition of HIV-1(IIIB)- and HIV-2(ROD)-induced cytopathicity in wild-type CEM/0 and thymidine kinase-deficient CEM/TK- cell cultures was measured in microtiter 96-well plates containing ~3·105 CEM cells/mL infected with 100 CCID50 of HIV per milliliter and containing appropriate dilutions of the test compounds. After 4−5 days of incubation at 37 °C in a CO2-controlled humidified atmosphere, CEM giant (syncytium) cell formation was examined microscopically. […]
(§5) was defined as the compound concentration required to inhibit HIV-induced giant cell formation by 50%. […]
(§6) The result was visualized by fluorescence imaging. […]
as §6

[4] = test system: HIV-2(ROD); assay: Anti-HIV activity assay, HIV-2-infected wild-type CEM/0 cell cultures; format: cell-based; conditions: Human immunodeficiency virus 2, CCRF-CEM, read-out: EC50 CEM/0 HIV-2
Procedure: as §3, §4, §5, §6, §6

[5] = test system: HIV-2(ROD); assay: Anti-HIV activity assay, HIV-2-infected thymidine-kinase-deficient CEM/TK- cell cultures; format: cell-based; conditions: for EC50: read-out: EC50 CEM/TK− HIV-2; for antiviral activity in CEM/TK− cell cultures (in words): HIV-2-infected CEM/TK− cells
Procedure: as §3, §4, §5, §6, §6

[6] = Cytotoxicity: inhibition of CD4+ T-cell (CEM) proliferation; format: cell-based; conditions: human, CEM/0 cells (CD4+ T-cells), 50 % cytostatic concentration, mean±SD, n=2-3
[7] = wild-type CEM/0 cells, HIV-2, mean±SD, n=2-3
[8] = Human immunodeficiency virus 2, thymidine-kinase-deficient CEM/TK− cells, HIV-2, mean±SD, n=2-3

| SMILES | half-life at 0.92 mM [1] | half-life at 0.86 mM [2] | EC50 [3] | EC50 [4, 7] | EC50 [5, 8] | stability in cell extracts (in words) ([2]; CEM cell extracts, incubation up to 30 h) | CC50 [6] | EC50 [4] | EC50 ([5]; thymidine-kinase-deficient CEM/TK− cells, HIV-2, mean±SD, n=2-3) | EC50 ([5]; thymidine-kinase-deficient CEM/TK− cells, HIV-2, mean±SD, n=2-3, listed as d4T 1) | antiviral activity in CEM/TK− cell cultures (in words) [5] | EC50 ([5]; Human immunodeficiency virus 2, CEM-TK(-)) |
| --- | --- | --- | --- | --- | --- | --- | --- | --- | --- | --- | --- | --- |
| Cc1cn([C@H]2C=C[C@@H](CO)O2)c(=O)[nH]c1=O [Compound 1, 3′‐deoxy‐2′,3′‐didehydrothymidine, reference compound] |  |  | 430 ± 250 nM |  |  |  | > 50000 nM | 220 ± 50 nM | > 50000 nM | 150000 nM |  |  |
| CCCCOP(=O)(OCc1ccc(OC(=O)CCCC)cc1)OP(=O)(O)OP(=O)(O)OCC1C=CC(n2cc(C)c(=O)[nH]c2=O)O1 (stereo not drawn) [6 cw] | 94 h | 0.7 h | 500 ± 210 nM | 670 ± 880 nM | 9740 ± 3440 nM |  | 64000 ± 11000 nM |  |  |  | marked loss of activity |  |
| CCCCCCCCCCCCCCCCCCOP(=O)(OCc1ccc(OC(=O)CC)cc1)OP(=O)(O)OP(=O)(O)OCC1C=CC(n2cc(C)c(=O)[nH]c2=O)O1 (stereo not drawn) [6 bz] | 206 h | 1.6 h | 190 ± 90 nM |  |  |  | 11000 ± 4000 nM | 250 nM |  |  |  | 350 ± 250 nM |
| CCCCCCCCCCCCCCCOP(=O)(OCc1ccc(OC(=O)CCCCCCCCCCCCCCC)cc1)OP(=O)(O)OP(=O)(O)OCC1C=CC(n2cc(C)c(=O)[nH]c2=O)O1 (stereo not drawn) [6 ey] | 249 h | 2.5 h | 620 ± 300 nM | 860 ± 40 nM | 3900 ± 3400 nM |  | 48000 ± 31000 nM |  |  |  |  |  |
| Cc1cn([C@H]2C[C@H](O)[C@@H](COP(=O)(O)OP(=O)(O)OP(=O)(O)O)O2)c(=O)[nH]c1=O [TTP, reference compound] |  |  |  |  |  | rapidly enzymatically dephosphorylated |  |  |  |  |  |  |

Further lines, with some results ahead:

| half-life at 0.92 mM [1] | half-life at 0.86 mM [2] | EC50 [3] | EC50 [4, 7] | EC50 [5, 8] | stability in cell extracts (in words) ([2]; CEM cell extracts, incubation up to 30 h) | SMILES | CC50 [6] | EC50 [4] | EC50 ([5]; thymidine-kinase-deficient CEM/TK− cells, HIV-2, mean±SD, n=2-3) | EC50 ([5]; thymidine-kinase-deficient CEM/TK− cells, HIV-2, mean±SD, n=2-3, listed as d4T 1) | antiviral activity in CEM/TK− cell cultures (in words) [5] | EC50 ([5]; Human immunodeficiency virus 2, CEM-TK(-)) |
| --- | --- | --- | --- | --- | --- | --- | --- | --- | --- | --- | --- | --- |
| 212 h | 3.6 h | 180 ± 10 nM | 160 ± 110 nM | 920 ± 120 nM |  | CCCCCCCCCCCCCCCOP(=O)(OCc1ccc(OC(=O)CCCCCC)cc1)OP(=O)(O)OP(=O)(O)OCC1C=CC(n2cc(C)c(=O)[nH]c2=O)O1 (stereo not drawn) [6 dy] | 18000 ± 4000 nM |  |  |  |  |  |
| 197 h | 3.4 h | 250 nM | 230 ± 180 nM | 390 ± 300 nM |  | CCCCCCCCCCCCCCCOP(=O)(OCc1ccc(OC(=O)CCCC)cc1)OP(=O)(O)OP(=O)(O)OCC1C=CC(n2cc(C)c(=O)[nH]c2=O)O1 (stereo not drawn) [6 cy] | 21000 ± 7000 nM |  |  |  |  |  |
| 50 h | 3.3 h | 120 ± 50 nM | 100 ± 30 nM | 540 ± 410 nM |  | CCCCCCCCCCCCCCCCCC(=O)Oc1ccc(COP(=O)(OCc2ccc(OC(=O)CCCC)cc2)OP(=O)(O)OP(=O)(O)OCC2C=CC(n3cc(C)c(=O)[nH]c3=O)O2)cc1 (stereo not drawn) [5 b, reference compound] | 33000 ± 7000 nM |  |  |  | active |  |
| 196 h | 0.4 h | 220 ± 50 nM | 500 ± 140 nM | 390 ± 300 nM |  | CCCCCCCCCCCCCCCCCCOP(=O)(OCc1ccc(OC(C)=O)cc1)OP(=O)(O)OP(=O)(O)OCC1C=CC(n2cc(C)c(=O)[nH]c2=O)O1 (stereo not drawn) [6 az] | 17000 ± 5000 nM |  |  |  |  |  |
| 269 h | 5.2 h | 170 nM | 210 ± 60 nM | 760 ± 110 nM |  | CCCCCCCCCCCCCCCCCCOP(=O)(OCc1ccc(OC(=O)CCCCCC)cc1)OP(=O)(O)OP(=O)(O)OCC1C=CC(n2cc(C)c(=O)[nH]c2=O)O1 (stereo not drawn) [6 dz] | 27000 ± 4000 nM |  |  |  |  |  |
| 52 h | 1.6 h | 310 ± 10 nM | 620 ± 300 nM | 2260 ± 1030 nM |  | CCCCCCCCC(=O)Oc1ccc(COP(=O)(OCc2ccc(OC(=O)CCCCCCCC)cc2)OP(=O)(O)OP(=O)(O)OCC2C=CC(n3cc(C)c(=O)[nH]c3=O)O2)cc1 (stereo not drawn) [5 a, reference compound] | 52000 ± 1000 nM |  |  |  | active |  |
